Assay results taken from patent US8772480B2, “Inhibitors of PI3 kinase and/or mTOR” (priority 2009, dated 2014).

Columns and labels:
[1] = target: human mutant B-raf (HuBraf V600E) (Homo sapiens (Human), UniProt P15056, V600E); conditions: at 10 μM compound concentration; POC = 100 − percent inhibition
[2] = target: ProfilerPro Kinase Selectivity Assay Kit kinases (Homo sapiens, UniProt P36888); type: biochemical; conditions: FLT3; 1 μM compound concentration
Procedure: (§1) Compounds were profiled using a LabChip® EZ Reader II platform and a ProfilerPro Kinase Selectivity Assay Kit (Caliper Lifesciences Inc., Hopkinton, Mass.). Compounds were tested at a concentration of 1 M in duplicate, with mean data reported as percent of control (POC).

[3] = target: ProfilerPro Kinase Selectivity Assay Kit kinases (Homo sapiens, UniProt P28482); type: biochemical; conditions: ERK2; 1 μM compound concentration
Procedure: as §1

[4] = target: ProfilerPro Kinase Selectivity Assay Kit kinases (Homo sapiens, UniProt P11362); type: biochemical; conditions: FGFR1; 1 μM compound concentration
Procedure: as §1

[5] = target: ProfilerPro Kinase Selectivity Assay Kit kinases (Homo sapiens, UniProt Q13627); type: biochemical; conditions: DYRK1a; 1 μM compound concentration
Procedure: as §1

[6] = target: ProfilerPro Kinase Selectivity Assay Kit kinases (Homo sapiens, UniProt P49137); type: biochemical; conditions: MAPKAPK2; 1 μM compound concentration
Procedure: as §1

[7] = target: ProfilerPro Kinase Selectivity Assay Kit kinases (Homo sapiens, UniProt Q06187); type: biochemical; conditions: BTK; 1 μM compound concentration
Procedure: as §1

[8] = target: ProfilerPro Kinase Selectivity Assay Kit kinases (Homo sapiens, UniProt Q16539); type: biochemical; conditions: p38 alpha; 1 μM compound concentration
Procedure: as §1

[9] = target: ProfilerPro Kinase Selectivity Assay Kit kinases (Homo sapiens, UniProt O75116); type: biochemical; conditions: ROCK2; 1 μM compound concentration
Procedure: as §1

[10] = target: ProfilerPro Kinase Selectivity Assay Kit kinases (Homo sapiens, UniProt P48730); type: biochemical; conditions: CK1 delta; 1 μM compound concentration
Procedure: as §1

[11] = target: ProfilerPro Kinase Selectivity Assay Kit kinases (Homo sapiens, UniProt P06239); type: biochemical; conditions: LCK; 1 μM compound concentration
Procedure: as §1

[12] = target: ProfilerPro Kinase Selectivity Assay Kit kinases (Homo sapiens, UniProt Q8IW41); type: biochemical; conditions: PRAK; 1 μM compound concentration
Procedure: as §1

[13] = target: ProfilerPro Kinase Selectivity Assay Kit kinases (Homo sapiens, UniProt P08069); type: biochemical; conditions: IGF1R; 1 μM compound concentration
Procedure: as §1

[14] = target: ProfilerPro Kinase Selectivity Assay Kit kinases (Homo sapiens, UniProt Q13188); type: biochemical; conditions: MST2; 1 μM compound concentration
Procedure: as §1

[15] = target: ProfilerPro Kinase Selectivity Assay Kit kinases (Homo sapiens, UniProt O75582); type: biochemical; conditions: MSK1; 1 μM compound concentration
Procedure: as §1

[16] = target: ProfilerPro Kinase Selectivity Assay Kit kinases (Homo sapiens, UniProt P04049); type: biochemical; conditions: cRAF; 1 μM compound concentration
Procedure: as §1

[17] = target: ProfilerPro Kinase Selectivity Assay Kit kinases (Homo sapiens, UniProt P06241); type: biochemical; conditions: FYN; 1 μM compound concentration
Procedure: as §1

[18] = target: ProfilerPro Kinase Selectivity Assay Kit kinases (Homo sapiens, UniProt P07948); type: biochemical; conditions: LYN; 1 μM compound concentration
Procedure: as §1

[19] = target: ProfilerPro Kinase Selectivity Assay Kit kinases (Homo sapiens, UniProt Q16566); type: biochemical; conditions: CAMK4; 1 μM compound concentration
Procedure: as §1

[20] = target: ProfilerPro Kinase Selectivity Assay Kit kinases (Homo sapiens, UniProt P00519); type: biochemical; conditions: ABL; 1 μM compound concentration
Procedure: as §1

[21] = target: ProfilerPro Kinase Selectivity Assay Kit kinases (Homo sapiens, UniProt O14965); type: biochemical; conditions: AURORA A; 1 μM compound concentration
Procedure: as §1

[22] = target: ProfilerPro Kinase Selectivity Assay Kit kinases (Homo sapiens, UniProt P35968); type: biochemical; conditions: KDR; 1 μM compound concentration
Procedure: as §1

[23] = target: ProfilerPro Kinase Selectivity Assay Kit kinases (Homo sapiens, UniProt Q13177); type: biochemical; conditions: PAK2; 1 μM compound concentration
Procedure: as §1

[24] = target: ProfilerPro Kinase Selectivity Assay Kit kinases (Homo sapiens, UniProt P27361); type: biochemical; conditions: ERK1; 1 μM compound concentration
Procedure: as §1

[25] = target: ProfilerPro Kinase Selectivity Assay Kit kinases (Homo sapiens, UniProt O00141); type: biochemical; conditions: SGK1; 1 μM compound concentration
Procedure: as §1

[26] = target: ProfilerPro Kinase Selectivity Assay Kit kinases (Homo sapiens, UniProt O95819); type: biochemical; conditions: HGK; 1 μM compound concentration
Procedure: as §1

[27] = target: ProfilerPro Kinase Selectivity Assay Kit kinases (Homo sapiens, UniProt P17612); type: biochemical; conditions: PKA alpha; 1 μM compound concentration
Procedure: as §1

[28] = target: ProfilerPro Kinase Selectivity Assay Kit kinases (Homo sapiens, UniProt Q13976); type: biochemical; conditions: PKGa2; 1 μM compound concentration
Procedure: as §1

[29] = target: ProfilerPro Kinase Selectivity Assay Kit kinases (Homo sapiens, UniProt P43405); type: biochemical; conditions: SYK; 1 μM compound concentration
Procedure: as §1

[30] = target: ProfilerPro Kinase Selectivity Assay Kit kinases (Homo sapiens, UniProt P23443); type: biochemical; conditions: p70S6K; 1 μM compound concentration
Procedure: as §1

[31] = system: ProfilerPro Kinase Selectivity Assay Kit kinases; type: biochemical; conditions: 1 μM compound concentration
Procedure: as §1

Chain of ProfilerPro Kinase Selectivity Assay Kit kinases (Homo sapiens, UniProt Q13177) (Q13177 2-524 limits assumed): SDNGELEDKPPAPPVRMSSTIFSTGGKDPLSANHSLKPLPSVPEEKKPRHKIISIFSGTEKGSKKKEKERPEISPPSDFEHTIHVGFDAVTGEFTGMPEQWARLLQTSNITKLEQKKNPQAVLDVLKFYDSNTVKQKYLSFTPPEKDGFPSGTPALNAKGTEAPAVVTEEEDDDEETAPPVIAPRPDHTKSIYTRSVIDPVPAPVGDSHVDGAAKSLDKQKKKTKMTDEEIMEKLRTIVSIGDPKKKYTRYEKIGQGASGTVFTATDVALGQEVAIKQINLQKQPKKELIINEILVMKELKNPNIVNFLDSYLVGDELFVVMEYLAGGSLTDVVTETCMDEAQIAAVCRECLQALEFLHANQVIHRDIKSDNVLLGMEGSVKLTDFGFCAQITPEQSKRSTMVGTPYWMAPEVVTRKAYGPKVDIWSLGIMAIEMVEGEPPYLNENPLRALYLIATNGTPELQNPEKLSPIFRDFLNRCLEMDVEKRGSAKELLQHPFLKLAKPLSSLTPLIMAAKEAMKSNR
Chain of ProfilerPro Kinase Selectivity Assay Kit kinases (Homo sapiens, UniProt Q13976) (Q13976 2-671 limits assumed): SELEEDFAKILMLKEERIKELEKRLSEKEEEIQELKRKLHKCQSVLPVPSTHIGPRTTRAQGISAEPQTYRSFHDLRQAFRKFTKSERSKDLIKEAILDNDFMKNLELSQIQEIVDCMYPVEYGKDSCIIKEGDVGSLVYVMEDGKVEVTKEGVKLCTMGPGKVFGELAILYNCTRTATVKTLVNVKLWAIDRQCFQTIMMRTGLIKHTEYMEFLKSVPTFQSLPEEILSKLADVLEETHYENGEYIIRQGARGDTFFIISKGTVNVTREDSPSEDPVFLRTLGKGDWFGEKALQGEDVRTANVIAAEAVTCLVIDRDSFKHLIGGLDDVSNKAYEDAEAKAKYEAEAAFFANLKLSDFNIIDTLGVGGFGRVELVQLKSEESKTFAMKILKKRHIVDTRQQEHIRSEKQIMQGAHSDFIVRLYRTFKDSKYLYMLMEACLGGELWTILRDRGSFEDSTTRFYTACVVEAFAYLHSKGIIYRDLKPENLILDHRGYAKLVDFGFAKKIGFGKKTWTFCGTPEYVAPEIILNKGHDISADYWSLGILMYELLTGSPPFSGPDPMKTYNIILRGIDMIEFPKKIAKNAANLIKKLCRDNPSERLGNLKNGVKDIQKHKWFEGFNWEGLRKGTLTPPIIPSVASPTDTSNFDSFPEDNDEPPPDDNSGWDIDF
Chain of ProfilerPro Kinase Selectivity Assay Kit kinases (Homo sapiens, UniProt P06241) (P06241 2-537 limits assumed): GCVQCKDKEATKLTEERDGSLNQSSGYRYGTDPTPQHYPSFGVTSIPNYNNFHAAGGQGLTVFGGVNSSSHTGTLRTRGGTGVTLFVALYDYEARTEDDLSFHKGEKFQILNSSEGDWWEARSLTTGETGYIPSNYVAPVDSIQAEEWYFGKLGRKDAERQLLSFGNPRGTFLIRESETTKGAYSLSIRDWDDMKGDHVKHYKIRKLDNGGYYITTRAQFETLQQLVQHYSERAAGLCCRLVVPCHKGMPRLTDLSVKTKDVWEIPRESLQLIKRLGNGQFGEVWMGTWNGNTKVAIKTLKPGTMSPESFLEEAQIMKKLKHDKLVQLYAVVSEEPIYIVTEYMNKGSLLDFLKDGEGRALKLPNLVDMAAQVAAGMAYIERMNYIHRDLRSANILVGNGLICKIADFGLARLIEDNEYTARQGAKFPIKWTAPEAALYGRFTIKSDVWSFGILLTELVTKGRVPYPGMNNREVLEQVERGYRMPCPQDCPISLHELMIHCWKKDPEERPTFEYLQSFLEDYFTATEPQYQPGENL
Chain of ProfilerPro Kinase Selectivity Assay Kit kinases (Homo sapiens, UniProt O95819) (O95819 2-1239 limits assumed): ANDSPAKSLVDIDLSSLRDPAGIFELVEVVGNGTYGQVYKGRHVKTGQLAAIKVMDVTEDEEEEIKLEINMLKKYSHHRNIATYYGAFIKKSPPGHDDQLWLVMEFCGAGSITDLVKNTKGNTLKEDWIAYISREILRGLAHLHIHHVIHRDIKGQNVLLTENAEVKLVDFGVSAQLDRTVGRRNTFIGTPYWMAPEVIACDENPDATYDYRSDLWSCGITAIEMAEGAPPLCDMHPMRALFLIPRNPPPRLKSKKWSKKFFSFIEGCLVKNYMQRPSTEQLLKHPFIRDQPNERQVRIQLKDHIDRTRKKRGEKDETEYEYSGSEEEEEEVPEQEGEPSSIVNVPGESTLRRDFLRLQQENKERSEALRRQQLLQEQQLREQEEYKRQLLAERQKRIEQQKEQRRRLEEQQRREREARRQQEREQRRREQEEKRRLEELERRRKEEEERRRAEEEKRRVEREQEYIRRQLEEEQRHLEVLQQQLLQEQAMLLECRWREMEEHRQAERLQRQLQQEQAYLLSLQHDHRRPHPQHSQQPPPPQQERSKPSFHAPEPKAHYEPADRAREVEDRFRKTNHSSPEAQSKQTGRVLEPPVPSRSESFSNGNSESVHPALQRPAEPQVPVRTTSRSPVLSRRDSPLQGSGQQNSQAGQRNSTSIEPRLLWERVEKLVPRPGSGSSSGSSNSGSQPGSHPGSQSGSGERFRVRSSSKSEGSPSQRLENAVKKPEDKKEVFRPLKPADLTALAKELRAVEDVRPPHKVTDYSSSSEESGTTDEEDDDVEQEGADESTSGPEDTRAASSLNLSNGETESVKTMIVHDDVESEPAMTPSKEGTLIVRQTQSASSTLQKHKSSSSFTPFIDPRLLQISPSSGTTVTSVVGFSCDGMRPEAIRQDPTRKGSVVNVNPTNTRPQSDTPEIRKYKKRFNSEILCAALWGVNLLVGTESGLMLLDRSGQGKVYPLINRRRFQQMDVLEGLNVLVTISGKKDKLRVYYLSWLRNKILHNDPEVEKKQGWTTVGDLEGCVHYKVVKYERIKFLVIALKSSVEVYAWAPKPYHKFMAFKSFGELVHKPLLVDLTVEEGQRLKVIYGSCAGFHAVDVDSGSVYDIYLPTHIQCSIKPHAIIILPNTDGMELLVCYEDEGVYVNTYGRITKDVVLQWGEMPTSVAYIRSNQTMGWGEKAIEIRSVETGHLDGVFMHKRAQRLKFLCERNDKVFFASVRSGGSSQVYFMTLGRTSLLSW
Chain of ProfilerPro Kinase Selectivity Assay Kit kinases (Homo sapiens, UniProt P27361) (P27361 2-379 limits assumed): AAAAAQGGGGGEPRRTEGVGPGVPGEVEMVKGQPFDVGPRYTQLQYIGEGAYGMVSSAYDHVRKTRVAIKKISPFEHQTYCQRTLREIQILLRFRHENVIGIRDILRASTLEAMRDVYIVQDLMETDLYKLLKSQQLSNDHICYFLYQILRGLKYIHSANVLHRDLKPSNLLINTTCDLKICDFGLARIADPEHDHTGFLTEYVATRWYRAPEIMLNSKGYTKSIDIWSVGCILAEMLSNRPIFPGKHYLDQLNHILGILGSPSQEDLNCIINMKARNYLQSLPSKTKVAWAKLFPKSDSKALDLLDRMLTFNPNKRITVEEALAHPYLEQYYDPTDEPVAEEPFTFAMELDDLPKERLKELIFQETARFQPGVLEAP
Chain of ProfilerPro Kinase Selectivity Assay Kit kinases (Homo sapiens, UniProt P11362) (P11362 22-822 limits assumed): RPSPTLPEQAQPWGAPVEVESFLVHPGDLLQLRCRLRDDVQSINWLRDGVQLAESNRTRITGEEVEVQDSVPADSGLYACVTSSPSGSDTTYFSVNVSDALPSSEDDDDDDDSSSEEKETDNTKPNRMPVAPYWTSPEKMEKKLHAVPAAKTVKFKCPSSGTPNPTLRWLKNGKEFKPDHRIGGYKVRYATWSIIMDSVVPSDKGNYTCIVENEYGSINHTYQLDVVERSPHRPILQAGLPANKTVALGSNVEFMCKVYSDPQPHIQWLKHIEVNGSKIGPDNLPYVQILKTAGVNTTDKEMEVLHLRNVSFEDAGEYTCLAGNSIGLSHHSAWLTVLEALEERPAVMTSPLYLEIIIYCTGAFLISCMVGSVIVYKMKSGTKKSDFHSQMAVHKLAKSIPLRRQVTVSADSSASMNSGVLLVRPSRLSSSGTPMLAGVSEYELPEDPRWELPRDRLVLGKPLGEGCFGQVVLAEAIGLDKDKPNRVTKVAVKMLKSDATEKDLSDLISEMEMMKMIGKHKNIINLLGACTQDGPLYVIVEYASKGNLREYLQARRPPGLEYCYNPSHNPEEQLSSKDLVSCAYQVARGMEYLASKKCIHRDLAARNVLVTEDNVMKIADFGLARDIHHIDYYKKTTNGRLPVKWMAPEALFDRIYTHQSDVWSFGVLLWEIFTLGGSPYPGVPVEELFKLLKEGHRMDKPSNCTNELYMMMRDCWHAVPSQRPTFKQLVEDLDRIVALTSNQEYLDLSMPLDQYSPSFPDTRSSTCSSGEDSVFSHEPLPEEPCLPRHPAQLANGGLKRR
Chain of ProfilerPro Kinase Selectivity Assay Kit kinases (Homo sapiens, UniProt P06239) (P06239 2-509 limits assumed): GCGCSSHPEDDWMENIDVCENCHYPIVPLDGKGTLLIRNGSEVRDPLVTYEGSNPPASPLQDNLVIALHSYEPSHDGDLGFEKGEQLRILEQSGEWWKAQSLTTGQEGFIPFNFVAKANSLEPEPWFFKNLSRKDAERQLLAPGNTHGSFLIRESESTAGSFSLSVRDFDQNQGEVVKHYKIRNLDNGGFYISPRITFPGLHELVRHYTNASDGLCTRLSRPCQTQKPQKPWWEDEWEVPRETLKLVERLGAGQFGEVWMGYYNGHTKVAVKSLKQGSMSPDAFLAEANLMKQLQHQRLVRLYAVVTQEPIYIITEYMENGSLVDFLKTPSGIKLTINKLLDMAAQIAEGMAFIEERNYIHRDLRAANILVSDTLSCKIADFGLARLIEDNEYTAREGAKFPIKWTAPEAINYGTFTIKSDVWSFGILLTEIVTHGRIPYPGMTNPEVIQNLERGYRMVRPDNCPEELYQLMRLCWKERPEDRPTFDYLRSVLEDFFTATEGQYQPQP
Chain of ProfilerPro Kinase Selectivity Assay Kit kinases (Homo sapiens, UniProt P28482) (P28482 2-360 limits assumed): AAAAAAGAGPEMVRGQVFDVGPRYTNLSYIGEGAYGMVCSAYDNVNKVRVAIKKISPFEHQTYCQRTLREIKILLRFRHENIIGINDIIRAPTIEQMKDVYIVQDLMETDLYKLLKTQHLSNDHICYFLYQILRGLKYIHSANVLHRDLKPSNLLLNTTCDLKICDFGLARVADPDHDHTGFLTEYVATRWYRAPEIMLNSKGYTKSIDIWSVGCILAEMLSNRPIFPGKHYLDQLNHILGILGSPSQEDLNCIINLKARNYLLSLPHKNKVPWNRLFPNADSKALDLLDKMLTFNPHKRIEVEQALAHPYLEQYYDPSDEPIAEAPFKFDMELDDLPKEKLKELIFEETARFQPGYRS

Q: How did the “Mutant B-raf HTRF Assay POC Mean n = 2” value [1] turn out when `CCc1cnc(Nc2ccc(OC)nc2)c(-c2nc(C)nc3[nH]cnc23)c1` [Example 74, 5-ethyl-N-(6-methoxypyridin-3-yl)-3-(2-methyl-9H-purin-6-yl)pyridin-2-amine] was run?
A: Its value is 111% of Control (POC).

Q: What about the “POC (Percent of control) FLT3” value [2] of the same molecule?
A: The value was 122 POC.

Q: And the “POC (Percent of control) ERK2” value [3]?
A: The value was 101 POC.

Q: And the “POC (Percent of control) FGFR1” value [4]?
A: Its value is 99 POC.

Q: What about the “POC (Percent of control) DYRK1a” value [5] of the same molecule?
A: The value was 100 POC.

Q: What about the “POC (Percent of control) MAPKAPK2” value [6] of the same molecule?
A: The value was 100 POC.

Q: And the “POC (Percent of control) BTK” value [7]?
A: The value was 99 POC.

Q: And the “POC (Percent of control) p38 alpha” value [8]?
A: The value was 101 POC.

Q: What about the “POC (Percent of control) ROCK2” value [9] of the same molecule?
A: Its value is 101 POC.

Q: What about the “POC (Percent of control) CK1 delta” value [10] of the same molecule?
A: The value was 97 POC.

Q: And the “POC (Percent of control) LCK” value [11]?
A: Its value is 98 POC.

Q: What about the “POC (Percent of control) PRAK” value [12] of the same molecule?
A: Its value is 97 POC.

Q: What about the “POC (Percent of control) IGF1R” value [13] of the same molecule?
A: The value was 93 POC.

Q: And the “POC (Percent of control) MST2” value [14]?
A: Its value is 98 POC.

Q: What about the “POC (Percent of control) MSK1” value [15] of the same molecule?
A: Its value is 98 POC.

Q: And the “POC (Percent of control) cRAF” value [16]?
A: Its value is 101 POC.

Q: And the “POC (Percent of control) FYN” value [17]?
A: Its value is 104 POC.

Q: And the “POC (Percent of control) LYN” value [18]?
A: The value was 97 POC.

Q: What about the “POC (Percent of control) CAMK4” value [19] of the same molecule?
A: The value was 95 POC.

Q: What about the “POC (Percent of control) ABL” value [20] of the same molecule?
A: Its value is 103 POC.

Q: And the “POC (Percent of control) AURORA A” value [21]?
A: The value was 102 POC.

Q: What about the “POC (Percent of control) KDR” value [22] of the same molecule?
A: Its value is 97 POC.

Q: And the “POC (Percent of control) PAK2” value [23]?
A: The value was 94 POC.

Q: And the “POC (Percent of control) ERK1” value [24]?
A: Its value is 99 POC.

Q: What about the “POC (Percent of control) SGK1” value [25] of the same molecule?
A: Its value is 108 POC.

Q: What about the “POC (Percent of control) HGK” value [26] of the same molecule?
A: The value was 94 POC.

Q: What about the “POC (Percent of control) PKA alpha” value [27] of the same molecule?
A: The value was 102 POC.

Q: And the “POC (Percent of control) PKGa2” value [28]?
A: The value was 92 POC.

Q: What about the “POC (Percent of control) SYK” value [29] of the same molecule?
A: The value was 97 POC.

Q: What about the “POC (Percent of control) p70S6K” value [30] of the same molecule?
A: The value was 98 POC.

Q: And the “POC (Percent of control) AMPK” value [31]?
A: The value was 100 POC.

Q: What about the “POC (Percent of control) CAMK2” value [31] of the same molecule?
A: Its value is 106 POC.

Q: What about the “POC (Percent of control) PKC beta2” value [31] of the same molecule?
A: Its value is 94 POC.

Q: What about the “POC (Percent of control) TAK1” value [31] of the same molecule?
A: The value was 98 POC.

Q: With `Cc1nc(N)cc(-c2cccnc2Nc2cccc3[nH]ncc23)n1` [Example 27, N-(3-(6-Amino-2-Methylpyrimidin-4-yl)Pyridin-2-yl)-1H-Indazol-4-Amine] as the molecule, how does the “Mutant B-raf HTRF Assay POC Mean n = 2” value [1] read?
A: Its value is 110% of Control (POC).

Q: And the “POC (Percent of control) FLT3” value [2]?
A: Its value is 73 POC.

Q: What about the “POC (Percent of control) ERK2” value [3] of the same molecule?
A: The value was 97 POC.

Q: What about the “POC (Percent of control) FGFR1” value [4] of the same molecule?
A: The value was 94 POC.

Q: What about the “POC (Percent of control) DYRK1a” value [5] of the same molecule?
A: The value was 92 POC.

Q: What about the “POC (Percent of control) MAPKAPK2” value [6] of the same molecule?
A: Its value is 101 POC.

Q: What about the “POC (Percent of control) BTK” value [7] of the same molecule?
A: Its value is 99 POC.

Q: And the “POC (Percent of control) p38 alpha” value [8]?
A: The value was 104 POC.

Q: What about the “POC (Percent of control) ROCK2” value [9] of the same molecule?
A: The value was 95 POC.

Q: What about the “POC (Percent of control) CK1 delta” value [10] of the same molecule?
A: Its value is 43 POC.

Q: And the “POC (Percent of control) LCK” value [11]?
A: Its value is 101 POC.

Q: And the “POC (Percent of control) PRAK” value [12]?
A: The value was 98 POC.

Q: What about the “POC (Percent of control) IGF1R” value [13] of the same molecule?
A: The value was 41 POC.

Q: And the “POC (Percent of control) MST2” value [14]?
A: The value was 84 POC.

Q: What about the “POC (Percent of control) MSK1” value [15] of the same molecule?
A: Its value is 94 POC.

Q: What about the “POC (Percent of control) cRAF” value [16] of the same molecule?
A: The value was 95 POC.

Q: What about the “POC (Percent of control) FYN” value [17] of the same molecule?
A: Its value is 98 POC.

Q: What about the “POC (Percent of control) LYN” value [18] of the same molecule?
A: Its value is 91 POC.

Q: And the “POC (Percent of control) CAMK4” value [19]?
A: Its value is 56 POC.

Q: And the “POC (Percent of control) ABL” value [20]?
A: Its value is 104 POC.

Q: And the “POC (Percent of control) AURORA A” value [21]?
A: The value was 78 POC.

Q: And the “POC (Percent of control) KDR” value [22]?
A: The value was 81 POC.

Q: What about the “POC (Percent of control) PAK2” value [23] of the same molecule?
A: Its value is 99 POC.

Q: And the “POC (Percent of control) ERK1” value [24]?
A: Its value is 100 POC.

Q: What about the “POC (Percent of control) SGK1” value [25] of the same molecule?
A: The value was 85 POC.

Q: And the “POC (Percent of control) HGK” value [26]?
A: Its value is 91 POC.

Q: What about the “POC (Percent of control) PKA alpha” value [27] of the same molecule?
A: Its value is 84 POC.

Q: And the “POC (Percent of control) PKGa2” value [28]?
A: Its value is 90 POC.

Q: And the “POC (Percent of control) SYK” value [29]?
A: The value was 83 POC.

Q: And the “POC (Percent of control) p70S6K” value [30]?
A: Its value is 91 POC.

Q: What about the “POC (Percent of control) AMPK” value [31] of the same molecule?
A: Its value is 83 POC.

Q: What about the “POC (Percent of control) CAMK2” value [31] of the same molecule?
A: Its value is 116 POC.

Q: What about the “POC (Percent of control) PKC beta2” value [31] of the same molecule?
A: Its value is 166 POC.

Q: And the “POC (Percent of control) TAK1” value [31]?
A: The value was 102 POC.
